Here are results for 35 compounds from ChEMBL document CHEMBL4385603 (J Med Chem, 2019).

The target of assay [1] is T1, Induced myeloid leukemia cell differentiation protein Mcl-1 (Homo sapiens, UniProt Q07820).
Description: Inhibition of FITC-labeled Bim peptide binding to His6-tagged MBP-fused Mcl-1 (unknown origin) by fluorescence polarization assay
Assay [2] concerns the target T1, Induced myeloid leukemia cell differentiation protein Mcl-1. This is another data set of the same source.
Description: Inhibition of FITC-labeled Bim peptide binding to His6-tagged MBP-fused Mcl-1 (unknown origin) in presence of 1% fetal bovine serum by fluorescence polarization assay
For assay [3] the target is unchanged. The source holds these as a separate data set.
Description: Inhibition of FITC-labeled Bak peptide binding to MBP-fused Mcl-1 (unknown origin) measured after 3 hrs by TR-FRET assay
Assay [4] has the same target. The source holds these as a separate data set.
Description: Inhibition of FITC-labeled Bak peptide binding to MBP-fused Mcl-1 (unknown origin) measured after 3 hrs in presence of 1% fetal bovine serum by TR-FRET assay
The target in a further assay is Bcl-2-like protein 1 (Homo sapiens, UniProt Q07817).
Sequence of Bcl-2-like protein 1 (Q07817 whole entry): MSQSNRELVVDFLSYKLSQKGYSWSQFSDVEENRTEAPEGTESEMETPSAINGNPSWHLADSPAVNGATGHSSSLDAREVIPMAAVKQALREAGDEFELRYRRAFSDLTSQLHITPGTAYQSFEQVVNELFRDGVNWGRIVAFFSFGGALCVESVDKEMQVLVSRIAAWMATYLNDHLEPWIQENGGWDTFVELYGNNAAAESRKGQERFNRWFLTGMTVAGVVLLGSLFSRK
Assay [5] concerns the target Apoptosis regulator Bcl-2 (Homo sapiens, UniProt P10415).
Description: Inhibition of FITC-labeled Bak peptide binding to Bcl-2 (unknown origin) after 0.5 hrs by fluorescence polarization assay
In another assay the test system is NCI-H929. Nature of the assay: cells. The conditions noted are these: Homo sapiens, NCI-H929, 72 h.
A further assay concerns K562. As to the kind of experiment: cells. As to conditions: Homo sapiens, K562, 72 h.

Sequence of Apoptosis regulator Bcl-2 (P10415 whole entry): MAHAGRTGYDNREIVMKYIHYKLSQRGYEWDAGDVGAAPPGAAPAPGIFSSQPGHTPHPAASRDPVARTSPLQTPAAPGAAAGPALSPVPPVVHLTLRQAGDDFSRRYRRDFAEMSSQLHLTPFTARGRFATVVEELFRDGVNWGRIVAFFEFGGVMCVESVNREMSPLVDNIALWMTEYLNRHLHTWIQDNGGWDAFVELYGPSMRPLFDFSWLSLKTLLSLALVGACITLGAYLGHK
T1 sequence (Q07820 whole entry): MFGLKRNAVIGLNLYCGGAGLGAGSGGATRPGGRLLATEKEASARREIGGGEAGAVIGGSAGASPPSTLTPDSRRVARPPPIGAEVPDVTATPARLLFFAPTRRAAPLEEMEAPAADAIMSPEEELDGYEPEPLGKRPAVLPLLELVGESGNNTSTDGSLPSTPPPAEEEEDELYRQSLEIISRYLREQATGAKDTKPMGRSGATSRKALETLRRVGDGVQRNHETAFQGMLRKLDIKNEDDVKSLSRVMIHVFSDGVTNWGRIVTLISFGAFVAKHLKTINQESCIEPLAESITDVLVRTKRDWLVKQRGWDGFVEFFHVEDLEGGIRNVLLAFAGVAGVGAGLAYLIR
Description for Bcl-2-like protein 1: Inhibition of FITC-labeled Bak peptide binding to Bcl-xL (unknown origin) after 0.5 hrs by fluorescence polarization assay
Description for K562: Antiproliferative activity against Mcl1-insensitive human K562 cells assessed as cell growth inhibition after 72 hrs by Celltiter-glo luminescence assay
Description for NCI-H929: Antiproliferative activity against Mcl1-sensitive human NCI-H929 cells assessed as cell growth inhibition after 72 hrs by Celltiter-glo luminescence assay

In the case of `Cc1cc(OCCCc2c3n(c4c(-c5c(C)nn(C)c5C)c(Cl)ccc24)CCN(Cc2ccc(C(=O)O)o2)C3=O)cc(C)c1Cl`, the inhibition constant Ki (commonly the dissociation constant of the complex between target and ligand, obtained from inhibition or displacement) in assay [1] is 5.8 nM; in assay [2], 137 nM.
The like results for `Cc1cc(OCCCc2c3n(c4c(-c5c(C)nn(C)c5C)c(Cl)ccc24)CCNC3=O)cc(C)c1Cl` were, in that order, 35 nM and greater than 200 nM.
The like results for `Cc1cc(OCCCc2c3n(c4c(-c5c(C)nn(C)c5C)c(Cl)ccc24)C[C@H](C)N(Cc2ccc(C(=O)O)cc2)C3=O)cc(C)c1Cl` were, in that order, 9.6 nM and 54 nM.
Consider `Cc1cc(OCCCc2c3n(c4c(-c5c(C)nn(C)c5C)c(Cl)ccc24)[C@H](C)CN(c2cc(C(=O)O)cc4c2OCO4)C3=O)cc(C)c1Cl`, for which the Ki in assay [3] was determined as 0.42 nM; in assay [4], 1.4 nM; at Bcl-2-like protein 1, 25000 nM; in assay [5] it was 630 nM. Besides, the GI50 (as a rule, the concentration at which growth is held to half of that of the control) with NCI-H929 was 1700 nM; in the assay with K562 it was greater than 12500 nM.
In the case of `Cc1cc(OCCCc2c3n(c4c(-c5c(C)nn(C)c5C)c(Cl)ccc24)CCCNC3=O)cc(C)c1Cl`, the inhibitory constant (Ki) in assay [1] turned out to be 12 nM; in assay [2] it was 101 nM.
Taken in the same sequence, the figures for `Cc1cc(OCCCc2c3n(c4c(-c5c(C)nn(C)c5C)c(Cl)ccc24)[C@@H](C)CN(Cc2ccc(C(=O)O)o2)C3=O)cc(C)c1Cl` were 22 nM and 193 nM.
Regarding `Cc1cc(OCCCc2c3n(c4c(-c5c(C)nn(C)c5C)c(Cl)ccc24)[C@H](C)CN(c2cccc4c(C(=O)O)cccc24)C3=O)cc(C)c1Cl`, the Ki in assay [3] came to 0.33 nM; in assay [4], 0.77 nM; on Bcl-2-like protein 1, 26000 nM; in assay [5], 380 nM. For the same compound, in the assay with K562, the 50% growth inhibitory concentration (GI50) amounted to 2500 nM.
With `Cc1cc(OCCCc2c3n(c4c(-c5c(C)nn(C)c5C)c(Cl)ccc24)C[C@H](C)N(Cc2ccc(C(=O)O)o2)C3=O)cc(C)c1Cl`, the Ki in assay [1] worked out at 8.7 nM; in assay [2] it was 150 nM.
The like results for `Cc1cc(OCCCc2c3n(c4c(-c5c(C)nn(C)c5C)c(Cl)ccc24)C[C@@H](C)N(Cc2cccc(C(=O)O)c2)C3=O)cc(C)c1Cl` were, in that order, 2.1 nM and 67 nM.
The like results for `Cc1cc(OCCCc2c3n(c4c(-c5c(C)nn(C)c5C)c(Cl)ccc24)CC(C)CN(Cc2ccc(C(=O)O)cc2)C3=O)cc(C)c1Cl` (configuration not stated) were, in that order, 7.1 nM and 22 nM.
As to `Cc1cc(OCCCc2c3n(c4c(-c5c(C)nn(C)c5C)c(Cl)ccc24)[C@H](C)CN(Cc2ccc(C(=O)O)cc2)C3=O)cc(C)c1Cl`, the figures for the inhibitory constant (Ki) in assay [1] and in assay [2] were 0.77 nM and 6.7 nM, respectively.
Taken in the same sequence, the figures for `Cc1cc(OCCCc2c3n(c4c(-c5c(C)nn(C)c5C)c(Cl)ccc24)CCC(C)N(Cc2ccc(C(=O)O)cc2)C3=O)cc(C)c1Cl` (configuration not stated) were 6.6 nM and 42 nM.
On to `Cc1cc(OCCCc2c3n(c4c(-c5c(C)nn(C)c5C)c(Cl)ccc24)[C@H](C)CN(c2cc(C(=O)O)cc4c2ccn4C)C3=O)cc(C)c1Cl`, for which the Ki is 1.3 nM in assay [3], 6.8 nM in assay [4], greater than 40000 nM at Bcl-2-like protein 1 and 630 nM in assay [5]. Further, the 50% growth inhibitory concentration (GI50) was 2100 nM with NCI-H929 and greater than 12500 nM in the assay on K562.
`Cc1cc(OCCCc2c3n(c4c(-c5c(C)nn(C)c5C)c(Cl)ccc24)CCN(Cc2ccc(C(=O)O)cc2)C3=O)cc(C)c1Cl`: the values for the Ki in assay [1] and in assay [2] were 7.2 nM and 51 nM, respectively.
Taken in the same sequence, the figures for `Cc1cc(OCCCc2c3n(c4c(-c5c(C)nn(C)c5C)c(Cl)ccc24)[C@@H](C)CN(Cc2cccc(C(=O)O)c2)C3=O)cc(C)c1Cl` were 37 nM and 170 nM.
The like results for `Cc1cc(OCCCc2c3n(c4c(-c5c(C)nn(C)c5C)c(Cl)ccc24)C[C@@H](C)N(Cc2ccc(C(=O)O)o2)C3=O)cc(C)c1Cl` were, in that order, 5.9 nM and 39 nM.
`Cc1cc(OCCCc2c3n(c4c(-c5c(C)nn(C)c5C)c(Cl)ccc24)[C@H](C)CN(c2ccc(C(=O)O)cc2)C3=O)cc(C)c1Cl`: the inhibition constant (Ki) in assay [3] was 1.3 nM; in assay [4], 4.5 nM; at Bcl-2-like protein 1, greater than 40000 nM; in assay [5] it was 690 nM. Besides, the figures for the GI50 with NCI-H929 and with K562 were 4000 nM and greater than 12500 nM, respectively.
As to `Cc1cc(OCCCc2c3n(c4c(-c5c(C)nn(C)c5C)c(Cl)ccc24)CC(C)CNC3=O)cc(C)c1Cl` (configuration not stated), the figures for the Ki in assay [1] and in assay [2] were 42 nM and 150 nM, respectively.
The like results for `Cc1cc(OCCCc2c3n(c4c(-c5c(C)nn(C)c5C)c(Cl)ccc24)C(C)CCNC3=O)cc(C)c1Cl` (configuration not stated) were, in that order, 43 nM and greater than 200 nM.
Taken in the same sequence, the figures for `Cc1cc(OCCCc2c3n(c4c(-c5c(C)nn(C)c5C)c(Cl)ccc24)CCN(Cc2cccc(C(=O)O)c2)C3=O)cc(C)c1Cl` were 9.6 nM and 52 nM.
As to `Cc1cc(OCCCc2c3n(c4c(-c5c(C)nn(C)c5C)c(Cl)ccc24)[C@H](C)CN(Cc2cccc(C(=O)O)c2)C3=O)cc(C)c1Cl`, the inhibition constant Ki came out at 1.1 nM in assay [1] and 26 nM in assay [2].
Regarding `Cc1cc(OCCCc2c3n(c4c(-c5c(C)nn(C)c5C)c(Cl)ccc24)C[C@H](C)NC3=O)cc(C)c1Cl`, the results for the Ki in assay [1] and in assay [2] were 73 nM and 145 nM, respectively.
The like results for `Cc1cc(OCCCc2c3n(c4c(-c5c(C)nn(C)c5C)c(Cl)ccc24)CCC(C)NC3=O)cc(C)c1Cl` (configuration not stated) were, in that order, 70 nM and greater than 200 nM.
As to `Cc1cc(OCCCc2c3n(c4c(-c5c(C)nn(C)c5C)c(Cl)ccc24)CC(C)CN(Cc2cccc(C(=O)O)c2)C3=O)cc(C)c1Cl` (configuration not stated), the Ki in assay [1] came out at 11 nM; in assay [2] it was 144 nM.
With `Cc1cc(OCCCc2c3n(c4c(-c5c(C)nn(C)c5C)c(Cl)ccc24)[C@H](C)CN(c2cccc(C(=O)O)c2)C3=O)cc(C)c1Cl`, the inhibitory constant (Ki) in assay [3] was 1.4 nM; in assay [4], 2.6 nM; at Bcl-2-like protein 1, greater than 40000 nM; in assay [5], 990 nM. For the same compound, the 50% growth inhibitory concentration (GI50) with NCI-H929 was 4400 nM; in the assay with K562, greater than 12500 nM.
Consider `Cc1cc(OCCCc2c3n(c4c(-c5c(C)nn(C)c5C)c(Cl)ccc24)CCC(C)N(Cc2cccc(C(=O)O)c2)C3=O)cc(C)c1Cl` (configuration not stated), for which the inhibitory constant (Ki) was 12 nM in assay [1] and greater than 200 nM in assay [2].
The like results for `Cc1cc(OCCCc2c3n(c4c(-c5c(C)nn(C)c5C)c(Cl)ccc24)[C@H](C)CN(Cc2ccc(C(=O)O)o2)C3=O)cc(C)c1Cl` were, in that order, 1 nM and 26 nM.
The like results for `Cc1cc(OCCCc2c3n(c4c(-c5c(C)nn(C)c5C)c(Cl)ccc24)C[C@H](C)N(Cc2cccc(C(=O)O)c2)C3=O)cc(C)c1Cl` were, in that order, 9.9 nM and 97 nM.
The like results for `Cc1cc(OCCCc2c3n(c4c(-c5c(C)nn(C)c5C)c(Cl)ccc24)C[C@@H](C)N(Cc2ccc(C(=O)O)cc2)C3=O)cc(C)c1Cl` were, in that order, 1.8 nM and 53 nM.
For `Cc1cc(OCCCc2c3n(c4c(-c5c(C)nn(C)c5C)c(Cl)ccc24)[C@H](C)CN(c2cn(C)c4cc(C(=O)O)ccc24)C3=O)cc(C)c1Cl`, the inhibitory constant (Ki) in assay [3] is 0.081 nM; in assay [4], 0.38 nM; on Bcl-2-like protein 1, greater than 40000 nM; in assay [5] it was 500 nM. In addition, the GI50 in the assay with NCI-H929 is 290 nM; with K562 it was greater than 12500 nM.
As for `Cc1cc(OCCCc2c3n(c4c(-c5c(C)nn(C)c5C)c(Cl)ccc24)C[C@@H](C)NC3=O)cc(C)c1Cl`, the Ki in assay [1] was found to be 27 nM; in assay [2], 151 nM.
Turning to `Cc1cc(OCCCc2c3n(c4c(-c5c(C)nn(C)c5C)c(Cl)ccc24)[C@H](C)CN(c2cc(C(=O)O)c4ccn(C)c4c2)C3=O)cc(C)c1Cl`, the Ki in assay [3] was 0.21 nM; in assay [4] it was 1.5 nM; at Bcl-2-like protein 1, greater than 40000 nM; in assay [5], 770 nM. Moreover, the results for the GI50 in the assay with NCI-H929 and in the assay with K562 were 820 nM and greater than 12500 nM, respectively.
For the compound `Cc1cc(OCCCc2c3n(c4c(-c5c(C)nn(C)c5C)c(Cl)ccc24)CC(C)CN(Cc2ccc(C(=O)O)o2)C3=O)cc(C)c1Cl` (configuration not stated), the Ki in assay [1] stood at 7.6 nM; in assay [2], 81 nM.
The like results for `Cc1cc(OCCCc2c3n(c4c(-c5c(C)nn(C)c5C)c(Cl)ccc24)CCC(C)N(Cc2ccc(C(=O)O)o2)C3=O)cc(C)c1Cl` (configuration not stated) were, in that order, 8.2 nM and 120 nM.
Taken in the same sequence, the figures for `Cc1cc(OCCCc2c3n(c4c(-c5c(C)nn(C)c5C)c(Cl)ccc24)[C@@H](C)CN(Cc2ccc(C(=O)O)cc2)C3=O)cc(C)c1Cl` were 35 nM and 191 nM.
